Results as given in the NIST ThermoML archive (doi:10.1016/j.tca.2016.06.022).

Assays:
[1] = xn = mol fraction of the nth substance listed; settings: 101 kPa, Liquid, Vibrating tube method, x2 = 0
[2] = 101 kPa, Liquid, Vibrating tube method

O [water] + NCCN
[1]
Settings | mass density [kg/m3]
274.15 K | 999.899
275.15 K | 999.94
276.15 K | 999.964
277.15 K | 999.972
278.15 K | 999.964
279.15 K | 999.94
280.15 K | 999.901
281.15 K | 999.848
282.15 K | 999.781
283.15 K | 999.699
323.15 K | 988.03
333.15 K | 983.191

O [water]
[2]
Settings | mass density [kg/m3]
274.15 K | 999.899
275.15 K | 999.94
276.15 K | 999.964
277.15 K | 999.972
278.15 K | 999.964
279.15 K | 999.94
280.15 K | 999.901
281.15 K | 999.848
282.15 K | 999.781
283.15 K | 999.699
323.15 K | 988.03
333.15 K | 983.191

NCCN [ethane-1,2-diamine]
[2]
Settings | mass density [kg/m3]
288.15 K | 901.26
298.15 K | 891.9
308.15 K | 882.49
323.15 K | 868.23
333.15 K | 858.6
